A value given as a limit tells only on which side of the number the result lay.

The assay has as its target T1, recombinant human DHODH (Homo sapiens, UniProt Q02127).
T1 construct: provided by Prof; M. Löffler, Marburg, Germany (gift, not a commercial vendor)
Nature of the assay: Inhibition assay of DHODH activity, human enzyme. Type of assay: biochemical. The conditions noted are these: class symbol (head prints μM, key in nM). Here is the method:
The standard assay mixture contained 50 μM decyclo ubichinone, 100 μM dihydroorotate, 60 μM 2,6-dichloroindophenol, as well as 20 mU DHODH. The volume activity of the recombinant enzyme used was 30 U/ml. Measurements were conducted in 50 mM TrisHCl (150 mM KCl, 0.1% Triton X-100, pH 8.0) at 30° C. in a final volume of 1 ml. The components were mixed, and the reaction was started by adding dihydroorotate. The course of reaction was followed by spectrophotometrically measuring the decrease in absorption at 600 nm for 2 min.
Inhibitory studies were conducted in a standard assay with additional variable amounts of inhibitor.
These investigations were carried out with recombinant human as well as with recombinant murine DHODH provided by Prof. M. Löffler, Marburg, Germany [M. Löffler, Chem. Biol. Interact.

T1 sequence (Q02127 whole entry): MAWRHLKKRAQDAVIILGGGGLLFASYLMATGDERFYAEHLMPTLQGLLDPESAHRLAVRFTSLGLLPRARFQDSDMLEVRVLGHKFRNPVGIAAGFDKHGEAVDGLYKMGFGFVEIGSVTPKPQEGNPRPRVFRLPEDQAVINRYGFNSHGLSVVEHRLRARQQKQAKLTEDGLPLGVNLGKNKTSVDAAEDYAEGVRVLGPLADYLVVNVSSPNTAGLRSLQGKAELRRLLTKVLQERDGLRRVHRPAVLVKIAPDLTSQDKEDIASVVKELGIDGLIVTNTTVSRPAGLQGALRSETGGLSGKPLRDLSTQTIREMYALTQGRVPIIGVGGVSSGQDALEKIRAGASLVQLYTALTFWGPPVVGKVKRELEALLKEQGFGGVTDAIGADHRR

As for `O=C(O)C1=C(C(=O)Nc2ccc(-c3ccccc3F)cc2)CCC1` [Compound 13, 2-((2′-fluoro-[1,1′-biphenyl]-4-yl)carbamoyl)cyclopent-1-enecarboxylic acid], the IC50 was below 0.8 µM.

For `O=C(O)C1=C(C(=O)Nc2ccc(-c3ccccc3Cl)cc2)CCC1` [Compound 14, 2-((2′-chloro-[1,1′-biphenyl]-4-yl)carbamoyl)cyclopent-1-enecarboxylic acid], the IC50 is below 0.8 µM.

As to `COc1ccccc1-c1ccc(NC(=O)C2=C(C(=O)O)CCC2)cc1` [Compound 15, 2-((2′-methoxy-[1,1′-biphenyl]-4-yl)carbamoyl)cyclopent-1-enecarboxylic acid], the IC50 was below 0.8 µM.

For the molecule `O=C(O)C1=C(C(=O)Nc2ccc(OCc3c(F)cccc3F)cc2)CCC1` [Compound 16, 2-((4-((2,6-difluorobenzyl)oxy)phenyl)carbamoyl)cyclopent-1-enecarboxylic acid], the IC50 is below 0.8 µM.

In the case of `CCOc1ccccc1-c1ccc(NC(=O)C2=C(C(=O)O)CCC2)c(F)c1` [Compound 17, 2-((2′-ethoxy-3-fluoro-[1,1′-biphenyl]-4-yl)carbamoyl)cyclopent-1-enecarboxylic acid], the IC50 was below 0.8 µM.

On to `N#Cc1cccc(-c2ccc(NC(=O)C3=C(C(=O)O)CCC3)cc2Cl)c1` [Compound 18, 2-((2-chloro-3′-cyano-[1,1′-biphenyl]-4-yl)carbamoyl)cyclopent-1-enecarboxylic acid], for which the IC50 was below 0.8 µM.

Consider `COc1ccc(-c2ccc(NC(=O)C3=C(C(=O)O)CCC3)cc2Cl)cc1` [Compound 19, 2-((2-chloro-4′-methoxy-[1,1′-biphenyl]-4-yl)carbamoyl)cyclopent-1-enecarboxylic acid], for which the IC50 is below 0.8 µM.

In the case of `COc1ccc(-c2ccc(NC(=O)C3=C(C(=O)O)CCC3)cc2Cl)cn1` [Compound 22, 2-((3-chloro-4-(6-methoxypyridin-3-yl)phenyl)carbamoyl)cyclopent-1-enecarboxylic acid], the IC50 is below 0.8 µM.

For the molecule `COc1ccc(-c2ccc(NC(=O)C3=C(C(=O)O)CCC3)cc2C)cc1` [Compound 23, 2-((4′-methoxy-2-methyl-[1,1′-biphenyl]-4-yl)carbamoyl)cyclopent-1-enecarboxylic acid], the IC50 is below 0.8 µM.

In the case of `O=C(O)C1=C(C(=O)Nc2cc(Br)c(OCc3cc(F)ccc3F)c(Br)c2)CCC1` [Compound 24], the IC50 is below 0.8 µM.

Consider `O=C(O)C1=C(C(=O)Nc2ccc(-c3cccc(F)c3)cc2F)CCC1` [Compound 27, 2-((3,3′-difluoro-[1,1′-biphenyl]-4-yl)carbamoyl)cyclopent-1-enecarboxylic acid], for which the IC50 was below 0.8 µM.

In the case of `O=C(O)C1=C(C(=O)Nc2cc(Br)c(OCc3ccccc3)c(Br)c2)CSC1` [Compound 29, 4-((4-(benzyloxy)-3,5-dibromophenyl)carbamoyl)-2,5-dihydrothiophene-3-carboxylic acid], the IC50 was below 0.8 µM.

On to `Cc1cc(-c2cc(F)c(NC(=O)C3=C(C(=O)O)CCC3)c(F)c2)ccc1F` [Compound 30, 2-((3,4′,5-trifluoro-3′-methyl-[1,1′-biphenyl]-4-yl)carbamoyl)cyclopent-1-enecarboxylic acid], for which the IC50 was below 0.8 µM.

As to `COc1ccccc1-c1ccc(NC(=O)C2=C(C(=O)O)CCC2)c([N+](=O)[O-])c1` [Compound 32, 2-((2′-methoxy-3-nitro-[1,1′-biphenyl]-4-yl)carbamoyl)cyclopent-1-enecarboxylic acid], the IC50 is below 0.8 µM.

In the case of `COc1cc(-c2ccccc2)ccc1NC(=O)C1=C(C(=O)O)CCC1` [Compound 33, 2-((3-methoxy-[1,1′-biphenyl]-4-yl)carbamoyl)cyclopent-1-enecarboxylic acid], the IC50 was below 0.8 µM.

Turning to `COc1cc(-c2ccccc2Cl)ccc1NC(=O)C1=C(C(=O)O)CCC1` [Compound 34, 2-((2′-chloro-3-methoxy-[1,1′-biphenyl]-4-yl)carbamoyl)cyclopent-1-enecarboxylic acid], the IC50 is below 0.8 µM.

`COc1cc(-c2cccc(OC(F)(F)F)c2)ccc1NC(=O)C1=C(C(=O)O)CCC1` [Compound 35, 2-((3-methoxy-3′-(trifluoromethoxy)-[1,1′-biphenyl]-4-yl)carbamoyl)cyclopent-1-enecarboxylic acid]: the IC50 was below 0.8 µM.

Consider `COc1cc(-c2ccccc2F)ccc1NC(=O)C1=C(C(=O)O)CCC1` [Compound 36, 2-((2′-fluoro-3-methoxy-[1,1′-biphenyl]-4-yl)carbamoyl)cyclopent-1-enecarboxylic acid], for which the IC50 was below 0.8 µM.

`COc1ccc(-c2ccc(NC(=O)C3=C(C(=O)O)CCC3)c(OC)c2)c(OC)c1` [Compound 37, 2-((2′,3,4′-trimethoxy-[1,1′-biphenyl]-4-yl)carbamoyl)cyclopent-1-enecarboxylic acid]: the IC50 is below 0.8 µM.

In the case of `CCOc1cccc(-c2ccc(NC(=O)C3=C(C(=O)O)CCC3)c(OC)c2)c1` [Compound 38, 2-((3′-ethoxy-3-methoxy-[1,1′-biphenyl]-4-yl)carbamoyl)cyclopent-1-enecarboxylic acid], the IC50 is below 0.8 µM.

In the case of `COc1cccc(-c2ccc(NC(=O)C3=C(C(=O)O)CCC3)c(OC)c2)c1` [Compound 39, 2-((3,3′-dimethoxy-[1,1′-biphenyl]-4-yl)carbamoyl)cyclopent-1-enecarboxylic acid], the IC50 is below 0.8 µM.

On to `O=C(O)C1=C(C(=O)Nc2ccc(-c3ccccc3Cl)cc2)CSC1` [Compound 41, 4-((2′-chloro-[1,1′-biphenyl]-4-yl)carbamoyl)-2,5-dihydrothiophene-3-carboxylic acid], for which the IC50 is below 0.8 µM.

Consider `Cc1cccc(Sc2ccc(NC(=O)C3=C(C(=O)O)CCC3)cc2)c1` [Compound 42, 2-((4-(m-tolylthio)phenyl)carbamoyl)cyclopent-1-enecarboxylic acid], for which the IC50 was below 0.8 µM.

For `O=C(O)C1=C(C(=O)Nc2ccc(-c3cccc(OC(F)(F)F)c3)cc2)CCC1` [Compound 43, 2-((3′-(trifluoromethoxy)-[1,1′-biphenyl]-4-yl)carbamoyl)cyclopent-1-enecarboxylic acid], the half-maximal inhibitory concentration (IC50) was below 0.8 µM.

As for `O=C(O)C1=C(C(=O)Nc2ccc(-c3cc4ccccc4s3)cc2)CCC1` [Compound 44, 2-((4-(benzo[b]thiophen-2-yl)phenyl)carbamoyl)cyclopent-1-enecarboxylic acid], the IC50 was below 0.8 µM.

As to `O=C(O)C1=C(C(=O)Nc2ccc(-c3cc4ccccc4s3)cc2F)CCC1` [Compound 45, 2-((4-(benzo[b]thiophen-2-yl)-2-fluorophenyl)carbamoyl)cyclopent-1-enecarboxylic acid], the IC50 was below 0.8 µM.

Consider `CCOc1cccc(-c2ccc(NC(=O)C3=C(C(=O)O)CCC3)c(F)c2)c1` [Compound 46, 2-((3′-ethoxy-3-fluoro-[1,1′-biphenyl]-4-yl)carbamoyl)cyclopent-1-enecarboxylic acid], for which the IC50 is below 0.8 µM.

Regarding `O=C(O)C1=C(C(=O)Nc2ccc(Oc3ccccc3)cc2)CCC1` [Compound 50, 2-((4-phenoxyphenyl)carbamoyl)cyclopent-1-enecarboxylic acid], the IC50 was below 0.8 µM.

As for `COc1ccccc1-c1ccc(NC(=O)C2=C(C(=O)O)CCC2)c(Cl)c1` [Compound 53, 2-((3-chloro-2′-methoxy-[1,1′-biphenyl]-4-yl)carbamoyl)cyclopent-1-enecarboxylic acid], the IC50 was below 0.8 µM.

Regarding `COc1ccccc1-c1ccc(NC(=O)C2=C(C(=O)O)CCC2)cc1Cl` [Compound 54, 2-((2-chloro-2′-methoxy-[1,1′-biphenyl]-4-yl)carbamoyl)cyclopent-1-enecarboxylic acid], the IC50 was below 0.8 µM.

Take `COc1ccccc1-c1c(F)c(F)c(NC(=O)C2=C(C(=O)O)CCC2)c(F)c1F` [Compound 56, 2-((2,3,5,6-tetrafluoro-2′-methoxy-[1,1′-biphenyl]-4-yl)carbamoyl)cyclopent-1-enecarboxylic acid]: the IC50 was below 0.8 µM.

In the case of `COc1ccccc1-c1ccc(NC(=O)C2=C(C(=O)O)CCC2)c(C)c1` [Compound 57, 2-((2′-methoxy-3-methyl-[1,1′-biphenyl]-4-yl)carbamoyl)cyclopent-1-enecarboxylic acid], the IC50 was below 0.8 µM.

As for `COc1ccccc1-c1cc(Cl)c(NC(=O)C2=C(C(=O)O)CCC2)c(Cl)c1` [Compound 58, 2-((3,5-dichloro-2′-methoxy-[1,1′-biphenyl]-4-yl)carbamoyl)cyclopent-1-enecarboxylic acid], the IC50 is below 0.8 µM.

As for `CCOc1ccccc1-c1cc(F)c(NC(=O)C2=C(C(=O)O)CCC2)c(F)c1` [Compound 62, 2-((2′-ethoxy-3,5-difluoro-[1,1′-biphenyl]-4-yl)carbamoyl)cyclopent-1-enecarboxylic acid], the IC50 is below 0.8 µM.

For `CCOc1cccc(-c2cc(F)c(NC(=O)C3=C(C(=O)O)CCC3)c(F)c2)c1` [Compound 63, 2-((3′-ethoxy-3,5-difluoro-[1,1′-biphenyl]-4-yl)carbamoyl)cyclopent-1-enecarboxylic acid], the IC50 was below 0.8 µM.

Consider `O=C(O)C1=C(C(=O)Nc2c(F)cc(-c3cccc(OC(F)(F)F)c3)cc2F)CCC1` [Compound 64, 2-((3,5-difluoro-3′-(trifluoromethoxy)-[1,1′-biphenyl]-4-yl)carbamoyl)cyclopent-1-enecarboxylic acid], for which the IC50 was below 0.8 µM.

Turning to `O=C(O)C1=C(C(=O)Nc2c(F)cc(-c3ccccc3Cl)cc2F)CCC1` [Compound 65, 2-((2′-chloro-3,5-difluoro-[1,1′-biphenyl]-4-yl)carbamoyl)cyclopent-1-enecarboxylic acid], the IC50 was below 0.8 µM.

Values taken from US8653138B2, “Calcium salts of compounds as anti-inflammatory, immunomodulatory and anti-proliferatory agents” (4SC MG, priority 2010, dated 2014).
